Results: PubChem BioAssay (NCI)
“And” between values parts separate entries of the source, which are not always exact repeats. Equal entries are not always repeated.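 Where inhibition never reached the appropriate level, the endpoint shown equals the highest concentration tested. Otherwise, values were interpolated linearly from a five-concentration, 48-hour dose response in 96-well plates. Here, GI50 denotes the concentration required for 50% inhibition of growth. TGI: concentration producing complete growth inhibition.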 Where a SMILES comes first, the peptide text is derived from it. The star is where a group is joined. Boc = CC(C)(C)OC(=O)*

system: LXFL 529 NSCLC; assay: growth of human tumour cells (NCI), 48 h

Row | SMILES | TGI
1 | C=CCN1CCC23c4c5ccc(O)c4OC2C(=NN=C2CCC4(O)C6Cc7ccc(O)c8c7C4(CCN6CC=C)C2O8)CCC3(O)C1C5 (stereo not given) | 88.7 µM
2 | CN(C)CCNC(=O)c1cccc2c(Nc3ccc(S(=O)(=O)N=C(N)N)cc3)c3ccccc3nc12 | > 100 µM
3 | COC(=O)C1=C(C(=O)OC)C2=S(SC3=C2CCCC3)S1 (stereo not given) | 30 µM
4 | CC1(C)CC(=O)CC(=Nc2ccc([N+](=O)[O-])cc2)C1 | > 100 µM
5 | C/C(=N\NC(=S)N1CCCCCC1)c1ccccn1 | 0.19 µM and 0.405 µM
6 | COc1cc2c3c(c1OC)-c1cc4c(cc1CC3(C#N)N(C(=O)c1ccccc1)CC2)OCO4 (stereo not given) | 56.3 µM

system: SW-620 colon; assay: growth of human tumour cells (NCI), 48 h

Row | SMILES | TGI | GI50
7 | Cn1cnnc1Sc1c([N+](=O)[O-])ncn1C | > 100 µM | 
8 | C=CCC1(CN(C)C)CC/C(=C\c2ccc(Cl)cc2)C1=O (stereo not given) | > 76.2 µM | 
9 | C[Si](C)(C)/C(I)=C/CO | 47.8 µM | 
10 | C[N+](C)(C)CC1CCC/C1=N\OC(=O)c1ccccc1 (stereo not given) | > 100 µM | 
11 | CC(=O)N1CCC(=O)/C(=C/c2ccccc2)C1 | 34.8 µM | 
12 | C[Si](C)(C)/C(Br)=C\CCN1C(=O)CCC1=O | > 100 µM | 
13 | Cc1ccc(S(=O)OCc2c(C)c(C)c(COS(=O)c3ccc(C)cc3)c(C)c2C)cc1 (stereo not given) | > 100 µM | 
14 | C[C@]12CCC(=O)C=C1CC[C@@H]1C2CC[C@]2(C)Nc3[nH]ncc3CC12 (stereo not given in full) | > 100 µM | 
15 | COc1ccc2c(c1)c[n+](C)c1c3cc(OC)c(OC)cc3ccc21 | 3.13 µM and 3.76 µM | 
16 | CC(C)(C)[Si](C)(C)OC1C(=O)C[C@H]2CCCC[C@@H]12 (stereo not given in full) | > 100 µM | 
17 | CCOC(=O)c1ccc(N=Nc2cc(C(=O)OCC)ccc2O)cc1 | > 100 µM | 
18 | [N-]=[N+]=N/C1=C/CCCCC(=O)C1 | > 100 µM | 
19 | C=COC(=O)N[C@H]1CCc2cc(OC)c(OC)c(OC)c2-c2ccc(SC)c(=O)cc21 | > 100 µM | 
20 | Cc1ccc(NC(=O)CCc2nnc(N)o2)cc1 | > 100 µM | 
21 | CSc1nc(NC2OC(COC(C)=O)C(OC(C)=O)C(OC(C)=O)C2OC(C)=O)c(N=CC=Nc2c(NC3OC(COC(C)=O)C(OC(C)=O)C(OC(C)=O)C3OC(C)=O)nc(SC)n(C)c2=O)c(=O)n1C (stereo not given) | > 100 µM | > 50 µM
22 | CCOC(=O)C1SC(=Nc2ccccc2)N=C1C (stereo not given) | > 100 µM | 
23 | Nc1ccn(C2OC(CO)C(O)C2O)c(=O)n1 (stereo not given) | > 100 µM and 462 µM and > 500 µM | 0.847 µM
24 | O=C1CCC(=O)c2c1c(O)c1ccncc1c2O | 35.8 µM | 
25 | C=CCN1CCC23c4c5ccc(O)c4OC2C(=NN=C2CCC4(O)C6Cc7ccc(O)c8c7C4(CCN6CC=C)C2O8)CCC3(O)C1C5 (stereo not given) | 48.9 µM | 
26 | CN(C)CCNC(=O)c1cccc2c(Nc3ccc(S(=O)(=O)N=C(N)N)cc3)c3ccccc3nc12 | > 100 µM | 
27 | COC(=O)C1=C(C(=O)OC)C2=S(SC3=C2CCCC3)S1 (stereo not given) | 13 µM | 
28 | O=C(NNc1ccccc1)C(=O)NNc1ccccc1 | > 100 µM | 7.3 µM
29 | Nc1c(C(=O)c2ccccc2)cnn1-c1ccc(F)cc1 | > 25 µM | > 25 µM
30 | COC(=O)C(C)NC(=O)C(CCSC)NC(=O)C(Cc1ccccc1)NC(=O)OC(C)(C)C (stereo not drawn) (Boc-Phe-Met-Ala-OMe; configuration not given here) | 37.2 µg/mL and > 100 µM | 18.2 µg/mL
31 | C/C(=N\NC(=S)N1CCCCCC1)c1ccccn1 | 1.85 µM and 4.74 µM | < 0.0204 µM
32 | COc1cc2c3c(c1OC)-c1cc4c(cc1CC3(C#N)N(C(=O)c1ccccc1)CC2)OCO4 (stereo not given) | > 100 µM | 
33 | COC(=O)C1=CN(CC2=CC(=O)C(C)=CC2=O)C=C(C(=O)OC)C1c1cccc(OC)c1 | 4.81 µM | 2.2 µM

system: MDA-MB-435; assay: growth of human tumour cells (NCI), 48 h

Row | SMILES | GI50 | TGI
34 | COc1ccc2c(c1)c[n+](C)c1c3cc(OC)c(OC)cc3ccc21 | 1.51 µM and 5.1 µM | 2.98 µM and 20 µM
35 | C=COC(=O)N[C@H]1CCc2cc(OC)c(OC)c(OC)c2-c2ccc(SC)c(=O)cc21 |  | < 0.01 µM
36 | CSc1nc(NC2OC(COC(C)=O)C(OC(C)=O)C(OC(C)=O)C2OC(C)=O)c(N=CC=Nc2c(NC3OC(COC(C)=O)C(OC(C)=O)C(OC(C)=O)C3OC(C)=O)nc(SC)n(C)c2=O)c(=O)n1C (stereo not given) | > 50 µM | > 100 µM
37 | Nc1ccn(C2OC(CO)C(O)C2O)c(=O)n1 (stereo not given) | 0.671 µM | > 500 µM
38 | O=C(NNc1ccccc1)C(=O)NNc1ccccc1 | 1.84 µM | > 100 µM
39 | Nc1c(C(=O)c2ccccc2)cnn1-c1ccc(F)cc1 | > 25 µM | > 25 µM
40 | COC(=O)C(C)NC(=O)C(CCSC)NC(=O)C(Cc1ccccc1)NC(=O)OC(C)(C)C (stereo not drawn) (Boc-Phe-Met-Ala-OMe; configuration not given here) | 39.2 µg/mL | > 100 µM
41 | C/C(=N\NC(=S)N1CCCCCC1)c1ccccn1 | 0.0703 µM | 3.92 µM and 1.17 µM
42 | COc1cc2c3c(c1OC)-c1cc4c(cc1CC3(C#N)N(C(=O)c1ccccc1)CC2)OCO4 (stereo not given) |  | > 100 µM
43 | COC(=O)C1=CN(CC2=CC(=O)C(C)=CC2=O)C=C(C(=O)OC)C1c1cccc(OC)c1 | 5.8 µM | 16.2 µM

system: SK-MEL-2 melanoma; assay: growth of human tumour cells (NCI), 48 h

Row | SMILES | TGI | GI50
44 | Cn1cnnc1Sc1c([N+](=O)[O-])ncn1C | > 100 µM | 
45 | C=CCC1(CN(C)C)CC/C(=C\c2ccc(Cl)cc2)C1=O (stereo not given) | > 100 µM | 
46 | C[Si](C)(C)/C(I)=C/CO | 38.4 µM | 
47 | C[N+](C)(C)CC1CCC/C1=N\OC(=O)c1ccccc1 (stereo not given) | > 100 µM | 
48 | C[Si](C)(C)/C(Br)=C\CCN1C(=O)CCC1=O | > 100 µM | 
49 | C[C@]12CCC(=O)C=C1CC[C@@H]1C2CC[C@]2(C)Nc3[nH]ncc3CC12 (stereo not given in full) | > 100 µM | 
50 | COc1ccc2c(c1)c[n+](C)c1c3cc(OC)c(OC)cc3ccc21 | 6.12 µM and 16.9 µM | 2.3 µM and 7.11 µM
51 | CC(C)(C)[Si](C)(C)OC1C(=O)C[C@H]2CCCC[C@@H]12 (stereo not given in full) | > 100 µM | 
52 | CCN(CC)CCSc1c2ccccc2nc2c(OC)ccc(OC)c12 | > 23 µM | 
53 | [N-]=[N+]=N/C1=C/CCCCC(=O)C1 | > 100 µM | 
54 | C=COC(=O)N[C@H]1CCc2cc(OC)c(OC)c(OC)c2-c2ccc(SC)c(=O)cc21 | 1.73 µM | 
55 | Cc1ccc(NC(=O)CCc2nnc(N)o2)cc1 | > 100 µM | 
56 | CSc1nc(NC2OC(COC(C)=O)C(OC(C)=O)C(OC(C)=O)C2OC(C)=O)c(N=CC=Nc2c(NC3OC(COC(C)=O)C(OC(C)=O)C(OC(C)=O)C3OC(C)=O)nc(SC)n(C)c2=O)c(=O)n1C (stereo not given) | 50 µM and > 96 µM | 25.2 µM
57 | CCOC(=O)C1SC(=Nc2ccccc2)N=C1C (stereo not given) | > 100 µM | 
58 | Nc1ccn(C2OC(CO)C(O)C2O)c(=O)n1 (stereo not given) | > 500 µM | 
